This is an account of results in patent US20100247658A1, “ORGANIC COMPOUNDS” (priority 2007, published 2010).

The conditions of data set [1]: prior to micronisation.
For data set [2] the following is noted: micronised, heated for 5 hours at 70° C. in a thermal oven; cited from earlier work.

On to `C[N+]1(C)CCC(OC(=O)C(O)(c2ccccc2)C2CCCC2)C1.[Br-]` (centres unmarked) [glycopyrrolate, 3-[(cyclopentyl-hydroxyphenylacetyl)oxy]-1,1-dimethyl-pyrrolidinium bromide], for which the dispersive surface energy in data set [1] turned out to be 48 mJ/m^2. Take salbutamol sulfate: in data set [2], the “recrystallisation of amorphous parts / stable product” value is “failed to lead to recrystallisation”.
